In PubChem BioAssay AID179 (DTP/NCI, 2004) one finds EC50, IC50 and outcome data, which are given here for 51 compounds.

pEC50, pIC50: −log10 of the molar value. Calls of active or inactive are those of the source.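 How the source made its calls: active means compounds giving half or more protection of infected cells from virus-caused growth loss, again on retest; inactive means the rest.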

The test concerns CEM cells HIV-1 protection, formazan growth assay. In words: NCI AIDS Antiviral Assay. The conditions noted are these: for pIC50: measured here: growth of uninfected CEM cells. In outline: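 Steps: treat uninfected and HIV-1-infected human CEM cells at five drug levels; quantify growth by soluble formazan; retest any compound reaching 50% protection; classify actives from the retest.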

The pEC50 is −log10 of the EC50, conventionally taken in molar units. A word on the pIC50: it is the IC50 on a negative log10 scale, so that one unit is a factor of ten. A lower pIC50 goes with a high IC50.

With `O=c1[nH]c2cc(Cl)ccc2nc1/C(=N\O)C(O)c1cccc([N+](=O)[O-])c1` (stereo not given), the pEC50 is less than 3.18 and the negative logarithm of the IC50 (pIC50) is 3.19.

Turning to `CC1=C2CN(C(=O)OCC(C)C)CCC2C2=C(C(=O)c3ccccc3C2=O)C1C` (stereo not given), the pEC50 was less than 4.00 and the negative logarithm of the IC50 (pIC50) is less than 4.00.

Turning to `CC(C)(C)OC(=O)N[C@H]1CC(=O)c2ccccc2N(CC(=O)O)C1=O`, the pEC50 is less than 3.60 and the pIC50 is less than 3.60.

As for `Cc1cn(C2OC(CO[Si](C)(C)C(C)(C)C)/C(=C\C#N)C2O[Si](C)(C)C(C)(C)C)c(=O)[nH]c1=O` (stereo not given), the pEC50 was less than 3.70 and the pIC50 is less than 3.70.

Compound `NS(=O)(=O)c1ccc(CNC(=O)c2ccccc2SC(=O)Oc2ccc([N+](=O)[O-])cc2)cc1` showed a negative logarithm of the EC50 (pEC50) of 5.93 and a negative logarithm of the IC50 (pIC50) of 4.44.

As to `Cc1ccc2oc(=O)c3c(O)c4cccc(OC5OC(C)C6O[C@@H](c7ccccc7)OC6C5OC5OC(C)C(O)C(O)C5O)c4c4oc(=O)c1c2c34` (stereo not given in full), the pEC50 is less than 5.14 and the pIC50 is 7.49.

`O=C(CNc1cccc(Cl)c1)Nn1c(-c2ccccc2)nc2ccccc2c1=O`: the pEC50 was less than 3.70 and the negative-log IC50 (pIC50) is 5.56.

`CC1(C)CC2=NO[Se]3=C2C(=NO3)C1`: the pEC50 was less than 5.45 and the pIC50 was 6.72.

Take `COc1cccc(C2SC(N)=Nc3c2c(C)nn3C(=O)c2ccccc2O)c1` (stereo not given): the pEC50 is less than 5.70 and the negative-log IC50 (pIC50) was 6.77.

Consider `CSc1nc(=O)c(C#N)c(-c2ccccc2)n1C1OC(COC(C)=O)C(OC(C)=O)C(OC(C)=O)C1OC(C)=O` (stereo not given), for which the pEC50 is less than 3.70 and the pIC50 is 4.03.

For the compound `O=C(Nc1cccc(NC(=O)c2cc(=O)c3ccccc3o2)n1)c1cc(=O)c2ccccc2o1`, the pEC50 is less than 3.82 and the negative-log IC50 (pIC50) is less than 3.82.

Consider `COc1cc(Cc2nnc(SC)nc2C)cc(OC)c1OC`, for which the pEC50 was 5.00 and the pIC50 is 4.65.

For `NC(=O)CC(NC(=O)OCc1ccccc1)C(=O)NC(Cc1ccccc1)C(=O)NC(Cc1ccccc1)NC(=O)C(Cc1c[nH]c2ccccc12)C(=O)O` (stereo not given), the pEC50 is less than 4.30 and the negative logarithm of the IC50 (pIC50) is less than 4.30.

In the case of `COc1ccc(-c2oc3ccc(C)cc3c(=O)c2O)cc1`, the pEC50 is less than 4.28 and the pIC50 is less than 4.28.

As to `CCOc1ccccc1/C=C1\NC(=O)N(/C=C2\C(=O)Oc3ccccc3C2=O)C1=O`, the pEC50 is less than 3.70 and the pIC50 is 4.06.

For the compound `O=c1c2cc(-c3ccccc3)cnc2sn1-c1ccc([N+](=O)[O-])cc1`, the pEC50 was less than 3.70 and the pIC50 is 4.40.

In the case of `Cn1cnc([N+](=O)[O-])c1Sc1nnnn1-c1ccccc1`, the pEC50 was less than 3.65 and the pIC50 is 4.97.

For `CC1OC([C@]2(C)O[C@@H]([C@@]3(C)OC=CC3=O)CC2=O)CC1=O` (stereo not given in full), the result was inactive.

On to `O=C1CCC2(c3ccc(F)cc3)Nc3ncncc3N12` (stereo not given), for which the pEC50 was less than 3.46 and the negative-log IC50 (pIC50) was less than 3.46.

As to `O=C(Cc1ccccc1)NN1C(=O)C(Cl)C1c1cccc([N+](=O)[O-])c1` (stereo not given), the pEC50 is less than 4.84 and the negative-log IC50 (pIC50) is 5.06.

`CC(C)(O)CCCC1CCC2C3CCC4CCCCC4(C)C3CCC2(C)C1O` (stereo not given): the pEC50 was less than 3.70 and the pIC50 is 5.03.

`O=C1c2ccccc2C(=O)C1(Br)C(Cl)c1ccccc1` (stereo not given): the pEC50 was less than 3.70 and the negative logarithm of the IC50 (pIC50) was 5.45.

As to `O=c1[nH]nc(-c2ccc([N+](=O)[O-])cc2)n1/N=C/c1ccc([N+](=O)[O-])cc1`, the pEC50 is less than 3.70 and the pIC50 is 3.88.

Regarding `Cc1cc(OC(F)(F)c2nc3ccccc3o2)cc(C)c1C`, the negative-log EC50 (pEC50) was 4.60 and the negative logarithm of the IC50 (pIC50) is 4.57.

Consider `CCOC(=O)c1c(-c2cc(OC)c(OC)c(OC)c2)csc1N`, for which the pEC50 is less than 3.70 and the negative logarithm of the IC50 (pIC50) is 4.92.

As for `CCOC1NC(=O)c2ccccc21` (stereo not given), the result was inactive and the pIC50 was less than 3.70.

With `CCCCCCCCCCCCCCCC=C(c1cc(Br)cc(C(=O)O)c1OC)c1cc(Br)cc(C(=O)O)c1OC`, the pEC50 was less than 2.97 and the pIC50 was 4.62.

Take `COc1cc2ccc3c4ccccc4cnc3c2cc1OC`: the pEC50 was less than 4.05 and the pIC50 was less than 4.05.

As to `CCCCCCCCCCCCCCCC(=O)Nc1ccn(C2CCC(COP(=O)(O)OCC3CCC(n4cnc5c(=O)[nH]cnc54)O3)O2)c(=O)n1` (stereo not given), the pEC50 was 6.12 and the pIC50 was less than 4.00.

As for `C1=NCCNCCN=Cc2ccc(cc2)OCc2cccc(n2)COc2ccc1cc2`, the pEC50 was less than 4.00 and the negative logarithm of the IC50 (pIC50) is less than 4.00.

As for `CN1c2ccccc2C(=O)NC12CCNCC2`, the pEC50 is less than 3.70 and the pIC50 was less than 3.70.

On to `N#Cc1c(Cl)c2ccccc2n2c1nc1ccccc12`, for which the pEC50 was less than 3.82 and the pIC50 is 5.08.

Turning to `Cc1c(/C=N/NC(=S)Nc2ccc(Cl)cc2)c(=O)n(-c2ccccc2)n1C`, the pEC50 is less than 3.70 and the pIC50 was less than 3.70.

Turning to `CC(C)C1CC(CO)(CNc2nc(N)nc(Cl)c2C=O)C1` (stereo not given), the pEC50 is less than 3.70 and the negative logarithm of the IC50 (pIC50) was 5.75.

Regarding `CCOC(=O)[C@@]12C3C=CC(CC3)[C@]1(C(=O)c1ccccc1)C(=O)C(=O)N2c1ccccc1` (stereo not given in full), the pEC50 was less than 3.70 and the pIC50 was 3.96.

For `COCCCC(NC(=O)C(CC(C)C)NC(=O)OCc1ccc(OC)cc1)C(=O)OC` (stereo not given), the pEC50 is less than 3.70 and the pIC50 is 4.48.

Turning to `COc1ccc(C(O)/C(=N/N)c2nc3ccc(Cl)cc3[nH]c2=O)cc1` (stereo not given), the pEC50 was less than 3.58 and the negative logarithm of the IC50 (pIC50) is 3.60.

Turning to `CC1(C)SSC(C)(C)SS1`, the pEC50 is less than 3.70 and the negative-log IC50 (pIC50) is less than 3.70.

On to `Cc1cc(NCCCCCCCCNc2cc(C)nc3cc(N)ccc23)c2ccc(N)cc2n1`, for which the pEC50 is less than 5.09 and the pIC50 is 5.33.

Consider `COc1cc2c(cc1OC)C(CCl)c1cc(OC)c(OC)cc1C=C2`, for which the pEC50 is less than 4.00 and the pIC50 was less than 4.00.

As for `CCCCCCCCCCCCCCCc1ccc(OCC(O)CO)cc1` (stereo not given), the pEC50 was less than 4.72 and the pIC50 was less than 4.72.

Turning to `Cc1ccccc1NC(=O)CC(=O)n1nc(-c2ccccc2)c(N=Nc2ccc([N+](=O)[O-])cc2)c1-c1ccccc1`, the pEC50 is less than 4.60 and the pIC50 was 4.79.

Turning to `COc1cccc(C2SC(N)=Nc3c2c(C)nn3C(=O)Cc2ccccc2)c1` (stereo not given), the negative logarithm of the EC50 (pEC50) is 4.10 and the pIC50 was 3.89.

With `CSc1nc(C)cc(N(C)c2ccccc2)n1`, the pEC50 is less than 3.70 and the pIC50 was 4.49.

Turning to `c1cnc2c(c1)-n1cccc1C1(CCOCC1)NN2`, the pEC50 was less than 3.70 and the negative logarithm of the IC50 (pIC50) was less than 3.70.

Turning to `CN(C)C(=S)NC(=S)Nc1ccc2ccccc2c1`, the outcome was inactive.

In the case of `CC[P+](c1ccccc1)(N(C)C)N(C)C`, the pEC50 was less than 3.70 and the pIC50 is 3.95.

As to `CCOC(=O)Cn1c2ccccc2c(=O)c2cc(C)c(C)c(C#N)c21`, the pEC50 was less than 4.67 and the negative-log IC50 (pIC50) is less than 4.67.

Turning to `CC(C)OP(=O)(OC(C)C)C(C)(C)O`, the pEC50 is less than 3.70 and the negative logarithm of the IC50 (pIC50) was less than 3.70.

Consider `COc1cc2c(c(OC)c1OC)C1CCCCC1SCC2O` (stereo not given), for which the pEC50 was less than 3.40 and the negative logarithm of the IC50 (pIC50) was 4.11.

With `CC1=N/C(=C\c2ccc(/C=C3/N=C(C)OC3=O)cc2)C(=O)O1`, the pEC50 was less than 3.07 and the pIC50 was 4.33.
